In US20140178892A1, “SCREENING METHODS BASED ON VESICLE MOBILITY” (priority 2011, published 2014):

Experiments:
[1] = tested on: dextran-labeled vesicles carrying MHC class II molecules in astrocytes; assay: Mobility of Alexa Fluor 546 dextran-labeled MHC class II vesicles in control and IFNγ activated astrocytes; type: cell-based; details: for average vesicle maximal displacement / average vesicle track length: FIG. 4
Text: (§1) Cell organelles are stained by commercially available dyes and/or by cell transfection. E.g. peptidergic secretory vesicles are labeled by cell transfection for the secretory peptide—pro-atrial natriuretic peptide tagged with emerald green fluorescent protein (ANP.emd; see Han et al., Proc Natl Acad Sci USA. 1999; 96:14577-14582; Krian et al., J. Neurosci. 2003; 23(5):1580-3.). Glutamatergic vesicles are stained by cell transfection for vesicular glutamate transporter 1 tagged with green fluorescent protein (VGLUT1-GFP). ATP containing vesicles are stained by incubation of cells in quinacrine dihydrochloride (1 μM, 15 min at room temperature) (Pangrsic et al., J Biol. Chem. 2007; 28; 282(39):28749-58) and endosomes/lysosomes by incubation of cells in LysoTracker Red DND-99 (200 nM, 5 min, RT, Invitrogen) (Potokar et al., Glia. 2010; 58(10):1208-19). To observe MHC class II expression cells are loaded with 0.1 mg/ml Alexa Fluor^546 dextran (Molecular Probes, Invitrogen) for 16 hours at 37° C.
(§2) Cell cultures are treated with the biologically active substances (i.e. constituents of sera, cerebrospinal fluid and other biologically relevant small inorganic and organic substances, other related substances and mixtures of these), or with the reference standard compound, which consists of FTY720 and FTY720-phosphate (FTY720-P) in ratio from 1:0.1 to 1:100, dissolved in cell culture medium for 10 min at 18-37° C. To observe augmentation of the MHC class II molecule expression, cells are treated with interferon gamma (IFN-γ) for 48 hours at 37° C. or any other stimulant of the antigen presentation.
(§3) Cell loaded coverslips are then rinsed with extracellular solution (consisting of 10 mM HEPES/NaOH (pH 7.2), 10 mM D-glucose, 130 mM NaCl, 2 mM CaCl2, 2 mM MgCl2, and 5 mM KCl) and observed by fluorescence microscopy at 63× or 100× magnification using 488 nm Ar—Ion laser excitation (for ANP.emd, VGLUT1-GFP and quinacrine dihydrochloride) or 543 nm He—Ne laser exitation (for LysoTracker Red DND-99, Alexa Fluor^546 dextran), and band-pass filtered at 505-530 nm or long-pass filtered at 560 nm. Time-lapse fluorescence images are acquired at 0.5-2 Hz for 1-10 minutes to monitor vesicle mobility.
Cells can be stimulated with adenosine triphosphate (ATP) or any other stimulus of exocytotic release to record vesicle mobility and secretion before and after cell stimulation.
(§4) Vesicle traffic is analyzed by particle tracking software previously described (Potokar et al.; Biochem Biophys Res Commun. 2005; 329(2):678-83).
(§5) Several mobility parameters are determined for variable time epochs typically lasting 10-60 seconds: step length (displacement of a vesicle within the two successive frames), speed, track length (TL; the total path traveled by a vesicle within the defined time epoch), the vesicle maximal displacement (MD; a measure for the net translocation of a vesicle within the defined time epoch; cf. Wacker et al., J Cell Sci 110 (Pt 13):1453-63), the angle of MD and the directionality index (DI; the ratio of MD to TL).
The example of vesicle mobility modulation in relation to the antigen presentation in IFNγ activated astrocytes. […] Therefore the mobility analysis of dextran-labeled vesicles can be applied to describe the modulated mobility of the vesicles carrying MHC class II molecules upon stimulation of antigen presentation in astrocytes. […]

[2] = tested on: secretory vesicles in transfected astrocytes expressing ANP.emd; assay: Mobility of fluorescently labeled (ANP.emd) secretory vesicles in cultured astrocytes, particle tracking of time-lapse fluorescence images; type: cell-based, rat; details: for mean vesicle track length (TL) / mean vesicle maximal displacement (MD): 10 μM sphingosine, versus standard reference compound (Stand), 15 s epochs; for mean vesicle track length (TL): FIG. 2E; for mean vesicle maximal displacement (MD): FIG. 2F
Description: Cultured astrocytes, e.g. isolated as previously described by Schwartz & Wilson (Glia. 1992; 5(1):75-80) or any other cell type isolated from animal tissues or clonal cell lines derived from human or animal sources are seeded onto coverslips and maintained in an adequate cell cultured medium.
as §1
as §2, with “To observe augmentation of the MHC class II molecule expression, cells are treated with interferon gamma (IFN-γ) for 48 hours at 37° C. or any other stimulant of the antigen presentation.” left out
as §3, §4, §5
Example of the analysis of biologically active substances, such as sphingosine and immunoglobulin G (IgG) from human serum, on the mobility of secretory vesicles with respect to the effect of the standard compound, which is also the subject of the present invention. The example is shown in FIGS. 2E and F. The mobility of fluorescently labeled vesicles in transfected astrocytes expressing ANP.emd was analyzed by particle analyzing program Track2 and quantitative parameters of vesicle mobility were determined. […]

[3] = tested on: MHC class II molecules in astrocytes; assay: MHC class II expression in astrocytes by immunostaining and fluorescence microscopy; type: cell-based; details: IFNγ treated versus control astrocytes; overlay with dextran loaded structures; FIG. 3
Text: as §1, with “C. […]” for “C.”

[4] = cell stimulation with 1 mM ATP, control and IFNγ treated cells
[5] = IFNγ treated astrocytes versus non-treated control cells (Spon.)

Q: How did the “average vesicle maximal displacement” value [1, 4] turn out when `Nc1ncnc2c1ncn2[C@@H]1O[C@H](COP(=O)(O)OP(=O)(O)OP(=O)(O)O)[C@@H](O)[C@H]1O` [ATP, adenosine triphosphate] was run?
A: reduces

Q: What about the “average vesicle track length” value [1, 4] of the same molecule?
A: reduces

Q: What does the source list for `CCCCCCCCCCCCC/C=C/[C@@H](O)[C@@H](N)CO` [sphingosine]?
A: mean vesicle track length (TL) [2]: significantly attenuates; mean vesicle track length (TL) ([2]; listed as Sphingosine): strongly attenuates; mean vesicle maximal displacement (MD) [2]: significantly attenuates; mean vesicle maximal displacement (MD) ([2]; listed as Sphingosine): strongly attenuates; vesicle mobility ([2]; dependence on extracellular concentration, regions near the plasmalemma and deeper in the cytoplasm): dose-dependently attenuated

B1: IFNγ: cytokine interferon gamma (protein, UniProt P01579 24-161, looked up)
Interferon gamma: QDPYVKEAENLKKYFNAGHSDVADNGTLFLGILKNWKEESDRKIMQSQIVSFYFKLFKNFKDDQSIQKSVETIKEDMNVKFFNSNKKKRDDFEKLTNYSVTDLNVQRKAIHELIQVMAELSPAAKTGKRKRSQMLFRG
Q: Which results are given for B1?
A: average vesicle maximal displacement [1, 5]: significantly increase; average vesicle track length [1, 5]: significantly increase; mobility, in particular long-range mobility, of MHC class II-positive vesicles ([1]; astrocytes exposed to interferon-γ): enhanced; expression of MHC class II molecules [3]: induces
